# How the values were obtained:
# Assay in all cases: ≥ marks a high value that may be exact or a test limit, other limits are often not marked, values filed in µg/mL are converted to µM
# Staphylococcus aureus = tested on: Staphylococcus aureus
# Streptococcus uberis = tested on: Streptococcus uberis
# Listeria innocua = tested on: Listeria innocua
# Leuconostoc lactis = tested on: Leuconostoc lactis
# Bacillus cereus = tested on: Bacillus cereus
# [1] = tested on: Staphylococcus epidermidis
# Pasteurella multocida = tested on: Pasteurella multocida
# Escherichia coli = tested on: Escherichia coli
# Micrococcus luteus = tested on: Micrococcus luteus
# [2] = tested on: Staphylococcus aureus ATCC 25923
# Enterobacter cloacae = tested on: Enterobacter cloacae
# Enterococcus faecalis = tested on: Enterococcus faecalis
# Pseudomonas aeruginosa = tested on: Pseudomonas aeruginosa
# [3] = tested on: Staphylococcus aureus ATCC 29213
# [4] = tested on: Staphylococcus aureus ATCC BAA-1556
# Acinetobacter baumannii = tested on: Acinetobacter baumannii
# [5] = tested on: Acinetobacter baumannii ATCC 19606
# [6] = tested on: Candida albicans ATCC 90028
# [7] = tested on: Escherichia coli ATCC 25922
# [8] = tested on: Pseudomonas aeruginosa ATCC 27853
# Staphylococcus aureus MR = tested on: Staphylococcus aureus MR
# [9] = tested on: Staphylococcus epidermidis ATCC 12228
# [10] = tested on: Bacillus subtilis CMCC 63501
# Escherichia coli UB1005 = tested on: Escherichia coli UB1005
# [11] = tested on: Salmonella enterica subsp. enterica serovar Typhimurium ATCC 14028
# [12] = tested on: Salmonella enterica subsp. enterica serovar Pullorum C79-13
# [13] = tested on: Enterococcus faecalis ATCC 29212
# [14] = tested on: Staphylococcus aureus ATCC 43300
structure (smiles),measurement,setting,value
CC[C@H](C)[C@H](NC(=O)[C@H](CCCCN)NC(=O)[C@H](CO)NC(=O)[C@H](C)NC(=O)[C@@H](NC(=O)[C@H](CCCCN)NC(=O)[C@H](CCCCN)NC(=O)[C@@H](NC(=O)[C@@H](NC(=O)[C@H](CC(=O)O)NC(=O)[C@H](Cc1ccccc1)NC(=O)[C@H](CC(C)C)NC(=O)CN)C(C)C)[C@@H](C)CC)C(C)C)C(=O)N[C@@H](CCCCN)C(=O)NCC(=O)N[C@@H](CC(C)C)C(N)=O [GLFDVIKKVASKIKGL],MIC,Staphylococcus aureus,> 58.3 µM
same,MIC,Streptococcus uberis,≥ 58.3 µM
same,MIC,Listeria innocua,≥ 58.3 µM
same,MIC,Leuconostoc lactis,3.5 µM
same,MIC,Bacillus cereus,≥ 58.3 µM
same,MIC,[1],≥ 58.3 µM
same,MIC,Pasteurella multocida,≥ 58.3 µM
same,MIC,Escherichia coli,> 58.3 µM
same,MIC,Micrococcus luteus,≥ 58.3 µM
CC[C@H](C)[C@H](NC(=O)[C@@H](NC(=O)[C@@H]1CCCN1C(=O)[C@H](C)NC(=O)[C@@H](NC(=O)[C@H](Cc1cnc[nH]1)NC(=O)[C@@H]1CCCN1C(=O)[C@H](CC(C)C)NC(=O)[C@H](CC(C)C)NC(=O)[C@H](Cc1cnc[nH]1)NC(=O)[C@H](CCCCN)NC(=O)[C@H](C)NC(=O)[C@@H](NC(=O)[C@H](CO)NC(=O)CNC(=O)[C@H](CC(C)C)NC(=O)[C@@H](NC(=O)[C@H](CCCCN)NC(=O)[C@H](Cc1ccccc1)NC(=O)[C@H](CC(C)C)NC(=O)CN)C(C)C)C(C)C)C(C)C)[C@@H](C)CC)C(=O)N[C@@H](C)C(=O)N[C@@H](CCC(=O)O)C(=O)N[C@@H](CCCCN)C(=O)N[C@@H](CC(C)C)C(N)=O [GLFKVLGSVAKHLLPHVAPIIAEKL],MIC,[2],4.53 µM
same,MIC,Streptococcus uberis,9.43 µM
same,MIC,Listeria innocua,4.53 µM
same,MIC,Enterobacter cloacae,≥ 37.7 µM
same,MIC,Leuconostoc lactis,1.13 µM
same,MIC,Enterococcus faecalis,≥ 37.7 µM
same,MIC,Bacillus cereus,18.9 µM
same,MIC,[1],4.53 µM
same,MIC,Pasteurella multocida,18.9 µM
same,MIC,Escherichia coli,> 37.7 µM
same,MIC,Pseudomonas aeruginosa,> 37.7 µM
same,MIC,[3],4.53 µM
same,MIC,Micrococcus luteus,9.43 µM
CC(C)C[C@H](NC(=O)[C@H](CC(C)C)NC(=O)[C@H](CC(C)C)NC(=O)[C@H](CC(C)C)NC(=O)[C@H](CC(C)C)NC(=O)[C@H](CC(C)C)NC(=O)[C@H](CC(C)C)NC(=O)[C@@H](N)CCCCN)C(=O)N[C@@H](CCCCN)C(N)=O [KLLLLLLLK],MIC,[4],≥ 100 µM
CC[C@H](C)[C@H](NC(=O)[C@H](CCCN=C(N)N)NC(=O)[C@H](CCCCN)NC(=O)[C@@H](NC(=O)[C@@H](NC(=O)[C@H](CCCN=C(N)N)NC(=O)[C@@H](N)CCCCN)[C@@H](C)CC)C(C)C)C(=O)N[C@@H](CCCCN)C(=O)N[C@@H](CC(=O)O)C(=O)N[C@@H](Cc1ccccc1)C(=O)N[C@@H](CC(C)C)C(=O)N[C@@H](CCCN=C(N)N)C(=O)O [KRIVKRIKDFLR],MIC,Acinetobacter baumannii,≥ 50.9 µM
same,MIC,[2],≥ 204 µM
same,MIC,[5],≥ 102 µM
same,MIC,[6],2.5 µM
same,MIC,[7],1.25 µM
same,MIC,[3],2.5 µM
same,MIC,[8],2.5 µM
same,MIC,Staphylococcus aureus MR,≥ 204 µM
CC(C)C[C@H](NC(=O)[C@H](CC(C)C)NC(=O)[C@H](CC(C)C)NC(=O)[C@H](CCCCN)NC(=O)[C@H](CC(C)C)NC(=O)[C@H](CC(C)C)NC(=O)[C@H](CC(C)C)NC(=O)[C@H](CCCCN)NC(=O)[C@@H](N)CC(C)C)C(N)=O [LKLLLKLLL],MIC,[4],≥ 100 µM
CC(C)C[C@H](NC(=O)[C@H](CCCCN)NC(=O)[C@H](CC(C)C)NC(=O)[C@H](CC(C)C)NC(=O)[C@H](CC(C)C)NC(=O)[C@H](CC(C)C)NC(=O)[C@H](CC(C)C)NC(=O)[C@@H](N)CC(C)C)C(=O)N[C@@H](CCCCN)C(N)=O [LLLLLLKLK],MIC,[4],≥ 100 µM
CC[C@H](C)[C@H](NC(=O)[C@H](Cc1ccc(O)cc1)NC(=O)[C@H](CCCN=C(N)N)NC(=O)[C@H](CCCCN)NC(=O)[C@H](Cc1ccc(O)cc1)NC(=O)[C@@H](N)CC(C)C)C(=O)N[C@@H](CC(C)C)C(=O)N[C@@H](CCCN=C(N)N)C(=O)N[C@@H](CCCCN)C(=O)N[C@@H](Cc1ccccc1)C(=O)N[C@@H](CCCCN)C(=O)N[C@@H](Cc1ccccc1)C(=O)N[C@@H](CC(C)C)C(=O)N[C@@H](CCCCN)C(=O)N[C@@H](CCCCN)C(=O)N[C@@H](CCCCN)C(=O)N[C@@H](CC(C)C)C(=O)N[C@@H](CCCCN)C(=O)N[C@@H](CCCCN)C(=O)N[C@@H](CCCCN)C(N)=O [LYKRYILRKFKFLKKKLKKK],MIC,Staphylococcus aureus MR,24 µM
CC(C)C[C@H](NC(=O)[C@@H](N)CCCN=C(N)N)C(=O)N[C@@H](C)C(=O)N[C@@H](CCCN=C(N)N)C(=O)N[C@@H](CCCN=C(N)N)C(=O)N[C@H](C(=O)N[C@H](C(=O)N[C@@H](CCCN=C(N)N)C(=O)N[C@@H](CCCN=C(N)N)C(=O)N[C@H](C(=O)N[C@@H](C)C(=O)N[C@@H](CCCN=C(N)N)C(N)=O)C(C)C)C(C)C)C(C)C [RLARRVVRRVAR],MIC,Staphylococcus aureus,> 66.3 µM
same,MIC,Staphylococcus aureus MR,≥ 66.3 µM
C[C@H](NC(=O)[C@H](C)NC(=O)[C@H](CCCCN)NC(=O)[C@H](C)NC(=O)[C@H](C)NC(=O)[C@H](C)NC(=O)[C@H](CCCCN)NC(=O)[C@H](Cc1ccccc1)NC(=O)[C@@H](N)Cc1c[nH]c2ccccc12)C(=O)N[C@@H](C)C(=O)N[C@@H](CCCCN)C(=O)N[C@@H](Cc1ccccc1)C(=O)N[C@@H](Cc1c[nH]c2ccccc12)C(N)=O [WFKAAAKAAAKFW],MIC,[9],16 µM
same,MIC,[10],8 µM
same,MIC,Escherichia coli UB1005,4 µM
same,MIC,[11],32 µM
same,MIC,[12],8 µM
same,MIC,[7],4 µM
same,MIC,[13],32 µM
same,MIC,[3],8 µM
same,MIC,[8],16 µM
CC(C)C[C@H](NC(=O)[C@H](CC(C)C)NC(=O)[C@H](CCCCN)NC(=O)[C@H](CC(C)C)NC(=O)[C@H](CC(C)C)NC(=O)[C@@H](N)Cc1c[nH]c2ccccc12)C(N)=O [WLLKLL],MIC,[4],≥ 100 µM
CC(=O)N[C@@H](Cc1c[nH]c2ccccc12)C(=O)N[C@@H](CCCN=C(N)N)C(=O)N[C@@H](CCCCN)C(=O)N[C@@H](CC(C)C)C(=O)N[C@@H](Cc1c[nH]c2ccccc12)C(=O)N[C@@H](CCCN=C(N)N)C(=O)NCC(=O)NCC(=O)N[C@@H](CC(C)C)C(=O)N[C@@H](CCCCN)C(=O)N[C@@H](CCCN=C(N)N)C(=O)N[C@@H](Cc1c[nH]c2ccccc12)C(=O)N[C@@H](CC(C)C)C(=O)N[C@@H](CCCCN)C(N)=O [WRKLWRGGLKRWLK],MIC,[14],4 µM
same,MIC,[2],8 µM
same,MIC,[9],16 µM
same,MIC,[10],8 µM
same,MIC,Escherichia coli UB1005,4 µM
same,MIC,[11],8 µM
same,MIC,[12],2 µM
same,MIC,[8],8 µM
CC(C)C[C@H](NC(=O)[C@H](Cc1c[nH]c2ccccc12)NC(=O)[C@H](Cc1c[nH]c2ccccc12)NC(=O)[C@H](CC(C)C)NC(=O)[C@H](CCCN=C(N)N)NC(=O)[C@H](Cc1c[nH]c2ccccc12)NC(=O)[C@H](CC(C)C)NC(=O)[C@H](Cc1c[nH]c2ccccc12)NC(=O)[C@@H](N)Cc1c[nH]c2ccccc12)C(N)=O [WWLWRLWWL],MIC,[4],3.12 µM
